# Measured values reported in ChEMBL document CHEMBL5543097, “Synthesis and structure-activity relationships of novel 14-membered 2-fluoro ketolides with structural modification at the C11 position” (Eur J Med Chem, 2024).
# Legend:
# Moraxella catarrhalis [1] = assay: Antibacterial activity against Moraxella catarrhalis BCA 19-5 assessed as inhibition of bacterial growth incubated for 24 hrs by CLSI based broth microdilution method; type: functional; conditions: Moraxella catarrhalis, BCA 19-5, 24 h, read-out: MIC
# [2] = tested on: Staphylococcus epidermidis; assay: Antibacterial activity against erythromycin-resistant Staphylococcus epidermidis 19-11 assessed as inhibition of visible bacterial growth incubated for 18 hrs by broth microdilution method; type: functional
# Moraxella catarrhalis [3] = assay: Antibacterial activity against Moraxella catarrhalis BCA 19-6 assessed as inhibition of bacterial growth incubated for 24 hrs by CLSI based broth microdilution method; type: functional; conditions: Moraxella catarrhalis, BCA 19-6, 24 h, read-out: MIC
# Haemophilus influenzae [4] = assay: Antibacterial activity against Haemophilus influenzae HIN 19-15 assessed as inhibition of bacterial growth incubated for 20 to 24 hrs by CLSI based broth microdilution method; type: functional; conditions: time 20-24 hrs
# Haemophilus influenzae [5] = assay: Antibacterial activity against Haemophilus influenzae HIN 19-18 assessed as inhibition of bacterial growth incubated for 20 to 24 hrs by CLSI based broth microdilution method; type: functional; conditions: HIN 19-18, time 20-24 hrs
# [6] = tested on: Staphylococcus epidermidis; assay: Antibacterial activity against erythromycin-resistant Staphylococcus epidermidis 19-8 assessed as inhibition of visible bacterial growth incubated for 18 hrs by broth microdilution method; type: functional
# [7] = tested on: Staphylococcus epidermidis; assay: Antibacterial activity against erythromycin-resistant Staphylococcus epidermidis 19-9 assessed as inhibition of visible bacterial growth incubated for 18 hrs by broth microdilution method; type: functional
# Streptococcus pneumoniae [8] = assay: Antibacterial activity against erythromycin-resistant Streptococcus pneumoniae SPN19-8 assessed as inhibition of visible bacterial growth incubated for 18 hrs by broth microdilution method; type: functional
# Streptococcus pneumoniae [9] = assay: Antibacterial activity against erythromycin-resistant Streptococcus pneumoniae SPN19-13 assessed as inhibition of visible bacterial growth incubated for 18 hrs by broth microdilution method; type: functional
# Moraxella catarrhalis [10] = assay: Antibacterial activity against Moraxella catarrhalis BCA 19-31 assessed as inhibition of bacterial growth incubated for 24 hrs by CLSI based broth microdilution method; type: functional; conditions: BCA 19-31, 24 h
# Streptococcus agalactiae [11] = assay: Antibacterial activity against erythromycin-resistant Streptococcus agalactiae 19-9 assessed as inhibition of visible bacterial growth incubated for 18 hrs by broth microdilution method; type: functional
# Streptococcus pyogenes = assay: Antibacterial activity against erythromycin-resistant Streptococcus pyogenes ATCC 19615 assessed as inhibition of visible bacterial growth incubated for 18 hrs by broth microdilution method; type: functional
# Streptococcus pneumoniae [12] = assay: Antibacterial activity against erythromycin-resistant Streptococcus pneumoniae SPN19-14 assessed as inhibition of visible bacterial growth incubated for 18 hrs by broth microdilution method; type: functional
# [13] = tested on: Staphylococcus epidermidis; assay: Antibacterial activity against erythromycin-resistant Staphylococcus epidermidis 19-6 assessed as inhibition of visible bacterial growth incubated for 18 hrs by broth microdilution method; type: functional
# [14] = tested on: Staphylococcus epidermidis; assay: Antibacterial activity against erythromycin-resistant Staphylococcus epidermidis 19-5 assessed as inhibition of visible bacterial growth incubated for 18 hrs by broth microdilution method; type: functional
# [15] = Cytotoxicity against mouse AML12 cells assessed as reduction in cell viability incubated for 48 hrs by MTT assay; type: toxicity, cell-based
# [16] = tested on: Staphylococcus epidermidis; assay: Antibacterial activity against erythromycin-resistant Staphylococcus epidermidis 19-4 assessed as inhibition of visible bacterial growth incubated for 18 hrs by broth microdilution method; type: functional
# Streptococcus agalactiae [17] = assay: Antibacterial activity against erythromycin-resistant Streptococcus agalactiae 19-8 assessed as inhibition of visible bacterial growth incubated for 18 hrs by broth microdilution method; type: functional
structure (smiles),measurement,setting,value
CC[C@H]1OC(=O)[C@H](C)C(=O)[C@H](C)[C@@H](O[C@@H]2O[C@H](C)C[C@H](N(C)C)[C@H]2O)[C@](C)(OC)C[C@@H](C)C(=O)[C@H](C)[C@H]2N(CCCOC(=O)Nc3cccc(C)c3)C(=O)O[C@]12C,MIC,Moraxella catarrhalis [1],0.5 µg/mL
same,MIC,[2],0.5 µg/mL
same,MIC,Moraxella catarrhalis [3],0.5 µg/mL
same,MIC,Haemophilus influenzae [4],32 µg/mL
same,MIC,Haemophilus influenzae [5],32 µg/mL
same,MIC,[6],0.5 µg/mL
same,MIC,[7],1 µg/mL
same,MIC,Streptococcus pneumoniae [8],1 µg/mL
same,MIC,Streptococcus pneumoniae [9],1 µg/mL
same,MIC,Moraxella catarrhalis [10],1 µg/mL
same,MIC,Streptococcus agalactiae [11],0.5 µg/mL
same,MIC,Streptococcus pyogenes,< 0.03 µg/mL
same,MIC,Streptococcus pneumoniae [12],1 µg/mL
same,MIC,[13],0.5 µg/mL
same,MIC,[14],0.5 µg/mL
same,CC50 at 48 h,[15],71.7 µM
same,MIC,[16],2 µg/mL
same,MIC,Streptococcus agalactiae [17],< 0.03 µg/mL
CC[C@H]1OC(=O)[C@@](C)(F)C(=O)[C@H](C)[C@@H](O[C@@H]2O[C@H](C)C[C@H](N(C)C)[C@H]2O)[C@](C)(OC)C[C@@H](C)C(=O)[C@H](C)[C@H]2N(CCCOC(=O)Nc3cccc(C(F)(F)F)c3)C(=O)O[C@]12C,MIC,Moraxella catarrhalis [1],1 µg/mL
same,MIC,[2],0.25 µg/mL
same,MIC,Moraxella catarrhalis [3],1 µg/mL
same,MIC,Haemophilus influenzae [4],64 µg/mL
same,MIC,Haemophilus influenzae [5],64 µg/mL
same,MIC,[6],0.5 µg/mL
same,MIC,[7],1 µg/mL
same,MIC,Streptococcus pneumoniae [8],2 µg/mL
same,MIC,Streptococcus pneumoniae [9],2 µg/mL
same,MIC,Moraxella catarrhalis [10],4 µg/mL
same,MIC,Streptococcus agalactiae [11],8 µg/mL
same,MIC,Streptococcus pyogenes,< 0.03 µg/mL
same,MIC,Streptococcus pneumoniae [12],2 µg/mL
same,MIC,[13],0.5 µg/mL
same,MIC,[14],0.5 µg/mL
same,CC50 at 48 h,[15],12.4 µM
same,MIC,[16],0.5 µg/mL
same,MIC,Streptococcus agalactiae [17],< 0.03 µg/mL
CC[C@H]1OC(=O)[C@@](C)(F)C(=O)[C@H](C)[C@@H](O[C@@H]2O[C@H](C)C[C@H](N(C)C)[C@H]2O)[C@](C)(OC)C[C@@H](C)C(=O)[C@H](C)[C@H]2N(CCCOC(=O)Nc3ccccc3OC)C(=O)O[C@]12C,MIC,Moraxella catarrhalis [1],11.1 µg/mL
same,MIC,[2],0.125 µg/mL
same,MIC,Moraxella catarrhalis [3],0.41 µg/mL
same,MIC,Haemophilus influenzae [4],8 µg/mL
same,MIC,[6],0.06 µg/mL
same,MIC,[7],0.25 µg/mL
same,MIC,Streptococcus pneumoniae [8],0.125 µg/mL
same,MIC,Streptococcus pneumoniae [9],0.125 µg/mL
same,MIC,Moraxella catarrhalis [10],0.125 µg/mL
same,MIC,Streptococcus agalactiae [11],0.5 µg/mL
same,MIC,Streptococcus pyogenes,< 0.03 µg/mL
same,MIC,Streptococcus pneumoniae [12],0.125 µg/mL
same,MIC,[13],0.125 µg/mL
same,MIC,[14],0.06 µg/mL
same,CC50 at 48 h,[15],83.8 µM
same,MIC,[16],0.06 µg/mL
same,MIC,Streptococcus agalactiae [17],< 0.03 µg/mL
CC[C@H]1OC(=O)[C@@](C)(F)C(=O)[C@H](C)[C@@H](O[C@@H]2O[C@H](C)C[C@H](N(C)C)[C@H]2O)[C@](C)(OC)C[C@@H](C)C(=O)[C@H](C)[C@H]2N(CCCOC(=O)Nc3cc(C)cc(C)c3)C(=O)O[C@]12C,MIC,Moraxella catarrhalis [1],1 µg/mL
same,MIC,[2],0.25 µg/mL
same,MIC,Moraxella catarrhalis [3],1 µg/mL
same,MIC,Haemophilus influenzae [4],16 µg/mL
same,MIC,Haemophilus influenzae [5],16 µg/mL
same,MIC,[6],0.25 µg/mL
same,MIC,[7],0.5 µg/mL
same,MIC,Streptococcus pneumoniae [8],0.5 µg/mL
same,MIC,Streptococcus pneumoniae [9],0.5 µg/mL
same,MIC,Moraxella catarrhalis [10],0.5 µg/mL
same,MIC,Streptococcus agalactiae [11],4 µg/mL
same,MIC,Streptococcus pyogenes,< 0.03 µg/mL
same,MIC,Streptococcus pneumoniae [12],1 µg/mL
same,MIC,[13],0.5 µg/mL
same,MIC,[14],< 0.03 µg/mL
same,CC50 at 48 h,[15],25.5 µM
same,MIC,[16],< 0.25 µg/mL
same,MIC,Streptococcus agalactiae [17],0.06 µg/mL
CC[C@H]1OC(=O)[C@H](C)C(=O)[C@H](C)[C@@H](O[C@@H]2O[C@H](C)C[C@H](N(C)C)[C@H]2O)[C@](C)(OC)C[C@@H](C)C(=O)[C@H](C)[C@H]2N(CCCOC(=O)Nc3ccc(C(F)(F)F)cc3)C(=O)O[C@]12C,MIC,[2],0.125 µg/mL
same,MIC,Haemophilus influenzae [4],4 µg/mL
same,MIC,[6],0.06 µg/mL
same,MIC,[7],0.5 µg/mL
same,MIC,Streptococcus pneumoniae [8],0.125 µg/mL
same,MIC,Streptococcus pneumoniae [9],0.125 µg/mL
same,MIC,Moraxella catarrhalis [10],0.06 µg/mL
same,MIC,Streptococcus agalactiae [11],0.5 µg/mL
same,MIC,Streptococcus pyogenes,< 0.03 µg/mL
same,MIC,Streptococcus pneumoniae [12],0.125 µg/mL
same,MIC,[13],0.25 µg/mL
same,MIC,[14],0.06 µg/mL
same,CC50 at 48 h,[15],73.8 µM
same,MIC,[16],0.125 µg/mL
same,MIC,Streptococcus agalactiae [17],< 0.03 µg/mL
CC[C@H]1OC(=O)[C@@](C)(F)C(=O)[C@H](C)[C@@H](O[C@@H]2O[C@H](C)C[C@H](N(C)C)[C@H]2O)[C@](C)(OC)C[C@@H](C)C(=O)[C@H](C)[C@H]2N(CCCOC(=O)Nc3ccc(-c4ccccc4)cc3)C(=O)O[C@]12C,MIC,[2],0.5 µg/mL
same,MIC,Moraxella catarrhalis [3],1 µg/mL
same,MIC,Haemophilus influenzae [4],32 µg/mL
same,MIC,Haemophilus influenzae [5],8 µg/mL
same,MIC,[6],0.25 µg/mL
same,MIC,[7],0.5 µg/mL
same,MIC,Streptococcus pneumoniae [8],1 µg/mL
same,MIC,Streptococcus pneumoniae [9],1 µg/mL
same,MIC,Moraxella catarrhalis [10],1 µg/mL
same,MIC,Streptococcus agalactiae [11],4 µg/mL
same,MIC,Streptococcus pyogenes,< 0.03 µg/mL
same,MIC,Streptococcus pneumoniae [12],0.125 µg/mL
same,MIC,[13],1 µg/mL
same,MIC,[14],< 0.03 µg/mL
same,CC50 at 48 h,[15],20.7 µM
same,MIC,[16],0.125 µg/mL
same,MIC,Streptococcus agalactiae [17],< 0.03 µg/mL
CCc1ccc(NC(=O)OCCCN2C(=O)O[C@]3(C)[C@@H](CC)OC(=O)[C@@](C)(F)C(=O)[C@H](C)[C@@H](O[C@@H]4O[C@H](C)C[C@H](N(C)C)[C@H]4O)[C@](C)(OC)C[C@@H](C)C(=O)[C@H](C)[C@@H]23)cc1,MIC,[2],0.03 µg/mL
same,MIC,[6],< 0.03 µg/mL
same,MIC,[7],0.125 µg/mL
same,MIC,Streptococcus pneumoniae [8],0.125 µg/mL
same,MIC,Streptococcus pneumoniae [9],0.06 µg/mL
same,MIC,Streptococcus agalactiae [11],0.5 µg/mL
same,MIC,Streptococcus pyogenes,< 0.03 µg/mL
same,MIC,Streptococcus pneumoniae [12],< 0.03 µg/mL
same,MIC,[13],< 0.03 µg/mL
same,MIC,[14],< 0.03 µg/mL
same,CC50 at 48 h,[15],25.6 µM
same,MIC,[16],< 0.03 µg/mL
same,MIC,Streptococcus agalactiae [17],< 0.03 µg/mL
CC[C@H]1OC(=O)[C@@](C)(F)C(=O)[C@H](C)[C@@H](O[C@@H]2O[C@H](C)C[C@H](N(C)C)[C@H]2O)[C@](C)(OC)C[C@@H](C)C(=O)[C@H](C)[C@H]2N(CCCOC(=O)Nc3ccc(SC)cc3)C(=O)O[C@]12C,MIC,Moraxella catarrhalis [1],0.5 µg/mL
same,MIC,[2],0.125 µg/mL
same,MIC,Moraxella catarrhalis [3],0.5 µg/mL
same,MIC,Haemophilus influenzae [4],16 µg/mL
same,MIC,Haemophilus influenzae [5],8 µg/mL
same,MIC,[6],0.125 µg/mL
same,MIC,[7],0.25 µg/mL
same,MIC,Streptococcus pneumoniae [8],1 µg/mL
same,MIC,Streptococcus pneumoniae [9],0.25 µg/mL
same,MIC,Moraxella catarrhalis [10],0.125 µg/mL
same,MIC,Streptococcus agalactiae [11],16 µg/mL
same,MIC,Streptococcus pyogenes,< 0.03 µg/mL
same,MIC,Streptococcus pneumoniae [12],0.25 µg/mL
same,MIC,[13],0.125 µg/mL
same,MIC,[14],0.125 µg/mL
same,CC50 at 48 h,[15],76.1 µM
same,MIC,[16],0.125 µg/mL
same,MIC,Streptococcus agalactiae [17],0.03 µg/mL
CC[C@H]1OC(=O)[C@H](C)C(=O)[C@H](C)[C@@H](O[C@@H]2O[C@H](C)C[C@H](N(C)C)[C@H]2O)[C@](C)(OC)C[C@@H](C)C(=O)[C@H](C)[C@H]2N(CCCOC(=O)Nc3ccc(C)cc3)C(=O)O[C@]12C,MIC,Moraxella catarrhalis [1],0.125 µg/mL
same,MIC,[2],0.125 µg/mL
same,MIC,Moraxella catarrhalis [3],0.25 µg/mL
same,MIC,Haemophilus influenzae [4],32 µg/mL
same,MIC,Haemophilus influenzae [5],32 µg/mL
same,MIC,[6],< 0.03 µg/mL
same,MIC,[7],0.5 µg/mL
same,MIC,Streptococcus pneumoniae [8],0.5 µg/mL
same,MIC,Streptococcus pneumoniae [9],0.25 µg/mL
same,MIC,Moraxella catarrhalis [10],1 µg/mL
same,MIC,Streptococcus agalactiae [11],1 µg/mL
same,MIC,Streptococcus pyogenes,< 0.03 µg/mL
same,MIC,Streptococcus pneumoniae [12],0.25 µg/mL
same,MIC,[13],0.125 µg/mL
same,MIC,[14],0.125 µg/mL
same,CC50 at 48 h,[15],20.8 µM
same,MIC,[16],0.125 µg/mL
same,MIC,Streptococcus agalactiae [17],< 0.03 µg/mL
